The values below come from patent publication US20040048900A1, “Nicotine and/or nicotine agonists for the treatment of general anesthetic effects and side effects” (priority 2002, published 2004).

For assay [1], the system named is analgesic action of nicotine. The settings on record: Bitner, 1998; cited from earlier work.
The next assay deals with female mice. As to the kind of experiment: MAC and LORR of isoflurane. It counts as in vivo. From the text: Isoflurane causes hyperalgesia in female mice. […] Increased HPWL occurred at concentrations above 0.86% that were associated with sedation. MAC in these animals was 1.5±0.1% and LORR (mean partial pressures bracketing postural response and lack of response to placing the animal in a supine position) occurred at 0.59 +0.2% isoflurane.
5-28 mice were studied per group.

The target of assay [2] is T1, human α4β2 nAChRs expressed in Xenopus oocytes (Homo sapiens, UniProt P17787+P43681).
T1 construct: expressed in transfected cells; host or cells: Xenopus laevis oocytes injected with cRNA (1:1 α4 to β2)
T1 sequence (P43681 29-627 limits assumed): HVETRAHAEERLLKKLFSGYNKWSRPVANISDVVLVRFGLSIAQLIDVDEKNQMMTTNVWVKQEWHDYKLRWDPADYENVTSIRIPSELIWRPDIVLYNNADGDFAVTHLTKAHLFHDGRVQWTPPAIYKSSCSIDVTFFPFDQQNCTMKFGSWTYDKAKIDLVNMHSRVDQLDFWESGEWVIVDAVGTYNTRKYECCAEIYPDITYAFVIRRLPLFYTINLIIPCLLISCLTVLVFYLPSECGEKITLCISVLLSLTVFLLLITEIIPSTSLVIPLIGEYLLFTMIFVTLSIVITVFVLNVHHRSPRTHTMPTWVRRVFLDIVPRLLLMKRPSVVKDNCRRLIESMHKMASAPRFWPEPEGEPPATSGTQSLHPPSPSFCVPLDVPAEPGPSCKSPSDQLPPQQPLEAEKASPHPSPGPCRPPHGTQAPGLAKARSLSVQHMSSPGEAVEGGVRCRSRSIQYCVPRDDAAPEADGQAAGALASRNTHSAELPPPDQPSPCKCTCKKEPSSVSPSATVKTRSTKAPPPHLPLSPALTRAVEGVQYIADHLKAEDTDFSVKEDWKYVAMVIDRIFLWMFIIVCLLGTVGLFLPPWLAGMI
T1 sequence (P17787 26-502): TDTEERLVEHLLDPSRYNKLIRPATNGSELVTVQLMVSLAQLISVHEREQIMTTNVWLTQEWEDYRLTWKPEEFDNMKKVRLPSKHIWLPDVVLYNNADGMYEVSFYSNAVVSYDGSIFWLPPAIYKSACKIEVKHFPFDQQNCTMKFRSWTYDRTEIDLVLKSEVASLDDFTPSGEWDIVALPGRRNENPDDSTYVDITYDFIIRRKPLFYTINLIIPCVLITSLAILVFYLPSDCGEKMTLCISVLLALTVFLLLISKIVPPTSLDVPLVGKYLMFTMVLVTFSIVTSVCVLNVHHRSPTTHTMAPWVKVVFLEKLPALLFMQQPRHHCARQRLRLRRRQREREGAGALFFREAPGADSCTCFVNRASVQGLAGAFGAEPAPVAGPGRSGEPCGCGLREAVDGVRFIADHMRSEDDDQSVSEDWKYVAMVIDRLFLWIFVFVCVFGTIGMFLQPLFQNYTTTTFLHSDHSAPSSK
Briefly: Two-microelectrode voltage clamp of ACh-activated currents in Xenopus oocytes. The format is cell-based. How it is done: The human α4 and β2 type nAChRs were in a pSP64 expression vector. Standard techniques were used to linearize the vectors and use them as templates to make cRNA using SP6 as the polymerase. The human nicotinic clones were a gift from Dr. Jon Lindstrom, Ph.D. (Department of Neuroscience, University of Pennsylvania, Philadelphia, Pa.).
Xenopus laevis oocytes were removed from the females and defolliculated with collagenase. After the oocytes rested for 24 hours in L-15 oocyte medium, about 10 ng of a 1:1 ratio of α4 to β2 cRNA were injected into individual oocytes. A manual injector was used for this process (Nanoject; Drummond Scientific, Broomall, Pa.). The oocytes were incubated for 2-5 days in ND-96 medium (NaCl 96 mM, KCl 2 mM, MgCl2 1 mM, CaCl2 H2O 1.8 mM, HEPES 5 mM, Na-pyruvate 2.5 mM, theophylline 0.5 mM, and 10mg/L of gentamicin, adjusted to pH 7.5).
Whole oocytes were used to record currents using a Gene-Clamp 500 two-microelectrode voltage-clamp amplifier with an active ground (Axon Instruments, Inc., Foster, Cailf.). The recording electrodes were pulled from glass capillary tubing (Drummond, Broomall, Pa.) to obtain a resistance between 1 and 5 MΩ and filled with 3M KCl. Ba^2 Ringer's solution was used as the extracellular solution in order to avoid current amplification by calcium activated chloride currents (115 mM NaCl, 2.5 mM KCl, 1.8 mM BaCl2, 10 mM HEPES, 1 μM atropine, pH 7.4). Atropine was included to avoid activation of intrinsic muscarinic receptors. Experiments were performed at room temperature. Isoflurane was prepared from a saturated solution by serial dilution. Concentrations were verified by gas chromatography.
Oocytes were tested at a membrane potential of −60 mV. Bolus application of the agonist +/− indicated antagonist(s) was applied at a rate of 4 ml/min for a 2 second application.
Antagonists were pre-applied for 2 minutes prior to activation. Concentration response curves were made from the percent change in peak current from ACh activation in the presence of antagonist(s), compared to ACh alone. As the ACh concentration at central neuronal nAChRs is unknown, 1 mM ACh (saturating) was used to detect inhibition by isoflurane and mecamylamine experiments with mecamylamine. ACh 2 μM was used to detect potentiation by nicotine. Currents were measured in 5-8 cells for each data point. Clampex 7 (Axon instruments, Foster City, Calif.) was used for data acquisition.
Microcal Origins 5.0 (Microcal, Northampton, Mass.) was used for statistical calculations and graphical presentation. The in vitro data were fit to a modified Hill equation, y=100/(1+(x/IC50)^n), where IC50 is the concentration of drug at which of 50% of the response is inhibited and n is the Hill coefficient.

In assay [3] the test system is β2 nicotinic knockout male C57/B16 mice. As to the kind of experiment: HPWL in β2 nicotinic knockout mice. To be noted: vs wild type controls; 0.28% isoflurane, p<0.001. The format is in vivo. From the text: The subunit composition of the nicotinic receptors responsible for the analgesic effects of nicotinic agonists is controversial. […] Nicotinic antagonists specific for α7 containing nicotinic achetylcholine receptors can be analgesic in some settings (Damaj, 2000). […] The importance of the nicotinic β2 subunit in male C57/B16 mice and their generation matched wild type controls have been tested (a gift from J. P. Changeux, Institute Pasteur).

Assay [4] deals with ^3H-norepinephrine release from female mouse lumbar spinal cord slice. Briefly: 3H-norepinephrine release from superfused spinal cord slice. To be noted: isoflurane 0.38%.
Source text: Spinal Cord Slice Preparation: The spinal cord was dissected from the mouse. Under CO2 narcosis the mouse was decapitated. The spinal column was removed and placed into cold dissection solution where the spinal cord was removed with a dissection microscope. The lumbar section of the cord was isolated and imbedded in a 3% low melting point agar (Fisher Scientific) block made in dissection solution. Transverse 400 micrometer slices were made using a Vibratone VT1000S slicing apparatus (Leica, Whetzlar, Germany). Slicing was performed in ice cold Krebs solution bubbled with 5%CO2/95%O2.
The cord slices were incubated in a solution of 1 ml of Krebs solution and 10 ul of 1-[7,8-^3H] noradrenaline in a closed environment surrounded by Krebs solution bubbled with CO2/O2 for 30 minutes. The slices were transferred into a superfusion and stimulation chamber (Warner Instruments Inc.,) where Krebs solution was allowed to perfuse over them for 30 minutes at a rate of 0.5 ml/min. The superfusion chamber thermostatically temperature controlled at 37° C. The solutions were pumped to the chamber at a constant rate of 0.5 ml/min using a Kwik-Pump 290 (Long). Following a 30 minute period for equilibration, collections were taken every 1-2.5 minutes. Ecolite scintillation fluid (15 ml) was then added to each collection vial. The samples were analyzed for radioactivity (CPM) using a Packard TRI CARB 2100 TR scintillation counter (Meriden, Conn.).
Dissection Krebs Solution (mM) NaCl 125, KCl 2.5, NaHCO3 26, NaH2PO4-H2O1.25, MgCl2 6,CaCl2 1.5, glucose 2.5. Perfusion Krebs Solution (mM) NaCl 125, KCl 2.5, NaHCO3 26, NaH2PO4—H2O 1.25, MgCl2 1,CaCl2 2, glucose 2.5.
After incubation with ^3H-norepinephrine, the cord slices were perfused with buffer for 30 minutes at 0.5 ml/minute. After equilibration, samples containing released ^3H-norepinephrine were collected at 2.5 minute intervals. After determination of baseline release, the slices were stimulated with 1 mM nicotine in the perfusion buffer.
In a further assay the test system is male and female mice. Briefly: HPWL by gender, estrus stage, castration, oophorectomy. It counts as in vivo. The settings on record: isoflurane. Here is the method: The ovary and oviduct was tied with a double 3.0 polysorb suture. The fascia was closed with 3.0 polysorb and the skin with 4.0 nylon. The procedure was repeated on the other side. The mouse was injected with buprenophine 1 mg/kg prior to emergence for pain control.
Estrogen can directly modulate nicotinic receptors at micromolar concentrations (Paradiso, 2001; Nakazawa, 2001; and Damaj, 2001). Estrogen receptors are co-localized with both nicotinic and muscarinic receptors (Hosli, 2001). Progesterone is inhibitory at nicotinic acetylcholine receptors (Paradiso, 2001; and Damaj, 2001). HPWL was tested at different phases of the female estrus cycle (FIG. 14). […] Oophorectomy (see methods) was performed on six week old female mice. After allowing two weeks for hormonal depletion, and surgical recovery HPWL was again tested.
Furthermore, testosterone was tested to see if it induced a state resistant to isoflurane hyperalgesia. Male mice were castrated and after two weeks for surgical recovery and hormone depletion, hyperalgesia in response to isoflurane was tested. […] In addition to the classical “female hormones”, female mice also have testosterone that is made by the ovary (Halling, 1989). […] Testosterone levels in females decrease after oophorectomy.

The subject of the next assay is mice. The source says: Nicotinic acetylcholine receptors are involved in the mechanism of isoflurane hyperalgesia, and nicotinic inhibition could be the initiating event.
How could nicotinic inhibition cause hyperalgesia? Nicotine is thought to exert its analgesic action by increasing the release of norepinephrine, serotonin and acetylcholine onto the relay neurons in the dorsal horn of the spinal cord (Rao, 1996; and Reuter, 2000). Isoflurane might reduce pain threshold by inhibiting nicotinic acetylcholine receptors tonically active in potentiating the release of norepinephrine, serotonin and/or acetylcholine. To test the role of the α-adrenergic system, mice were treated systemically with the adrenergic neurotoxin DSP-4 to deplete norepinephrine levels (Jonsson, 1981). The DSP-4 mice 14 days after treatment were tested for HPWL in the presence of isoflurane alone or isoflurane with nicotine pretreatment (see methods).
To test the role of muscarinic receptors for acetylcholine, mice were treated with the nonspecific muscarinic antagonist, atropine. A cholinergic neurotoxin could not be used for these studies, because removing all cholinergic neurons would have nicotinic in addition to muscarinic effects. Instead, postsynaptic muscarinic blockade was used. ACh causes analgesia, at least in part due to muscarinic stimulation (Chiari, 1999; Smith, 1989; and Lavand'homme, 1999). […] High concentrations of atropine can block nicotinic acetylcholine receptors as well (Zwart, 1997).

Molecules are shown by their SMILES. Where “and” joins values, the source holds several entries; their conditions need not be identical. Equal values may be shown once. Entries after “also recorded” stand apart in the source; their conditions may differ.

For `C[N+](C)(C)CCCCCC[N+](C)(C)C` [Hexamethonium], the “effect on the analgesic action of nicotine” value in assay [1] is listed as “has no effect on the analgesic action of nicotine”.
For orientation: IC50 means the midpoint of a concentration-inhibition curve. For the compound `FC(F)OC(Cl)C(F)(F)F` (centres unmarked) [isoflurane], the MAC with female mice (isoflurane in these mice) was 1.4% and 1.5±0.1%. In addition, the LORR in the assay on female mice (mean partial pressures bracketing postural response and lack of response to supine placement) is given as 0.59 +0.2%. The “mode of antagonism at heteromeric nAChRs” value in assay [2] is reported as “non-competitive antagonists”. Moreover, in assay [2] (1 mM ACh, −60 mV, room temperature, read-out: IC50 for inhibition of α4β2 nAChR), the IC50 is 44 µM. In addition, the “hyperalgesic effect of isoflurane in β2 nicotinic knockout mice” value in assay [3] is on record as “clearly reduced in these animals, but not absent; also recorded: Hyperalgesia was reduced”. For the same compound, in assay [4], the basal norepinephrine release result was “basal norepinephrine release was reduced”. In assay [4] (1 mM nicotine), the “nicotine facilitated norepinephrine release” value was “no facilitation by nicotine”. In addition, the “hyperalgesic response after oophorectomy” value with male and female mice (female mice two weeks after oophorectomy) is recorded as “more pronounced”. Also, the “hyperalgesic effect by estrus stage” value with male and female mice (high estrogen (stages 2 and 3) and high progesterone (stage 5)) is “less hyperalgesic effect during these stages”. The “hyperalgesic response in male mice” value with male and female mice (intact males) is “less than that in females”. Besides, in the assay on male and female mice (two weeks after castration), the “hyperalgesic response in castrated males” value is “increased hyperalgesic responses to isoflurane compared to intact males”. Besides, the “hyperalgesic effect after norepinephrine depletion” value in the assay with mice (isoflurane, mice 14 days after DSP-4) is given as “no hyperalgesic effect at any subanesthetic concentration”. Moreover, the “isoflurane concentration that caused maximal hyperalgesia” value in the assay on mice (mouse, in vivo) is given as 0.38%.
